The data set is described as follows: Time course of conversion to indirubin in FaSSIF at 37° C.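 As to all read-outs here: test compound, about 1-3 mg in 5 mL FaSSIF, sampled and analysed by UPLC-MS with PDA UV (210-400 nm), QDa mass and evaporative light scattering detection.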 The class given is physicochemical. To be noted: for Conversion to indirubin: over a 24 hour period.

On to `CN(C)CCN(C)CN1C(=O)/C(=C2\Nc3ccccc3C2=O)c2ccccc21` [drawing 253], for which the indirubin is, setting by setting: (FaSSIF 37° C. 24 h) 87%; (FaSSIF 37° C., 15 min) 90%; (FaSSIF 37° C., 30 min) 90%; (FaSSIF 37° C., 1 h) 89%; (FaSSIF 37° C., 2 h) 85%. In addition, the indirubin methylene alcohol by setting is: (FaSSIF 37° C. 24 h) 7%; (FaSSIF 37° C., 15 min) 7%; (FaSSIF 37° C., 30 min) 7%; (FaSSIF 37° C., 1 h) 6%; (FaSSIF 37° C., 2 h) 6%. Also, the “starting material (prodrug compound)” value was found to be 0% (FaSSIF 37° C. 24 h); 0% (FaSSIF 37° C., 15 min); 0% (FaSSIF 37° C., 30 min); 0% (FaSSIF 37° C., 1 h); 0% (FaSSIF 37° C., 2 h). Besides, the Conversion to indirubin (FaSSIF 37° C.) was 80-100%.
With `O=C1/C(=C2/C(=O)N(CN3CCOCC3)c3ccccc32)Nc2ccccc21` [drawing 261], the indirubin (FaSSIF 37° C. 24 h) is 24%; the indirubin (FaSSIF 37° C., 15 min) is 5%; the indirubin (FaSSIF 37° C., 30 min) is on record as 8%; the indirubin (FaSSIF 37° C., 1 h) was 6%; the indirubin (FaSSIF 37° C., 2 h) was determined as 7%. The indirubin methylene alcohol (FaSSIF 37° C. 24 h) is given as 7%; the indirubin methylene alcohol (FaSSIF 37° C., 15 min) is recorded as 0%; the indirubin methylene alcohol (FaSSIF 37° C., 30 min) amounted to 3%; the indirubin methylene alcohol (FaSSIF 37° C., 1 h) is recorded as 0%; the indirubin methylene alcohol (FaSSIF 37° C., 2 h) is reported as 4%. The “starting material (prodrug compound)” value (FaSSIF 37° C. 24 h) was 46%; the “starting material (prodrug compound)” value (FaSSIF 37° C., 15 min) worked out at 69%; the “starting material (prodrug compound)” value (FaSSIF 37° C., 30 min) is reported as 80%; the “starting material (prodrug compound)” value (FaSSIF 37° C., 1 h) is 64%; the “starting material (prodrug compound)” value (FaSSIF 37° C., 2 h) was determined as 65%. For the same compound, the Conversion to indirubin (FaSSIF 37° C.) is 20-40%.
Take `O=C1/C(=C2/C(=O)N(C(=O)NC3CCOCC3)c3ccccc32)Nc2ccccc21` [drawing 263]: the indirubin by setting is: (FaSSIF 37° C. 24 h) 6%; (FaSSIF 37° C., 15 min) 8%; (FaSSIF 37° C., 30 min) 5%; (FaSSIF 37° C., 1 h) 5%; (FaSSIF 37° C., 2 h) 10%. The indirubin methylene alcohol runs as follows: (FaSSIF 37° C. 24 h) 0%; (FaSSIF 37° C., 15 min) 0%; (FaSSIF 37° C., 30 min) 0%; (FaSSIF 37° C., 1 h) 0%; (FaSSIF 37° C., 2 h) 1%. For the same compound, the “starting material (prodrug compound)” value reads like this: (FaSSIF 37° C. 24 h) 55%; (FaSSIF 37° C., 15 min) 50%; (FaSSIF 37° C., 30 min) 44%; (FaSSIF 37° C., 1 h) 33%; (FaSSIF 37° C., 2 h) 50%. Besides, the Conversion to indirubin (FaSSIF 37° C.) was 0-20%.
In the case of `O=C1/C(=C2/C(=O)N(CN3CCC(F)(F)CC3)c3ccccc32)Nc2ccccc21` [drawing 260], the indirubin by setting is: (FaSSIF 37° C. 24 h) 40%; (FaSSIF 37° C., 15 min) 45%; (FaSSIF 37° C., 30 min) 29%; (FaSSIF 37° C., 1 h) 18%; (FaSSIF 37° C., 2 h) 49%. This compound registered an indirubin methylene alcohol (FaSSIF 37° C. 24 h) of 0%; an indirubin methylene alcohol (FaSSIF 37° C., 15 min) of 0%; an indirubin methylene alcohol (FaSSIF 37° C., 30 min) of 0%; an indirubin methylene alcohol (FaSSIF 37° C., 1 h) of 0%; an indirubin methylene alcohol (FaSSIF 37° C., 2 h) of 0%. The “starting material (prodrug compound)” value runs as follows: (FaSSIF 37° C. 24 h) 52%; (FaSSIF 37° C., 15 min) 54%; (FaSSIF 37° C., 30 min) 39%; (FaSSIF 37° C., 1 h) 37%; (FaSSIF 37° C., 2 h) 51%. Further, the Conversion to indirubin (FaSSIF 37° C.) is reported as 20-40%.
As for `CCN(CC)CN1C(=O)/C(=C2\Nc3ccccc3C2=O)c2ccccc21` [drawing 252], the indirubin reads like this: (FaSSIF 37° C. 24 h) 100%; (FaSSIF 37° C., 15 min) 100%; (FaSSIF 37° C., 30 min) 100%; (FaSSIF 37° C., 1 h) 100%; (FaSSIF 37° C., 2 h) 100%. Moreover, the indirubin methylene alcohol by setting is: (FaSSIF 37° C. 24 h) 0%; (FaSSIF 37° C., 15 min) 0%; (FaSSIF 37° C., 30 min) 0%; (FaSSIF 37° C., 1 h) 0%; (FaSSIF 37° C., 2 h) 0%. The “starting material (prodrug compound)” value runs as follows: (FaSSIF 37° C. 24 h) 0%; (FaSSIF 37° C., 15 min) 0%; (FaSSIF 37° C., 30 min) 0%; (FaSSIF 37° C., 1 h) 0%; (FaSSIF 37° C., 2 h) 0%. Also, the Conversion to indirubin (FaSSIF 37° C.) was 80-100%.
For `O=C1/C(=C2/C(=O)N(CO)c3ccccc32)Nc2ccccc21` [drawing 259], the indirubin by setting is: (FaSSIF 37° C. 24 h) 17%; (FaSSIF 37° C., 15 min) 12%; (FaSSIF 37° C., 30 min) 15%; (FaSSIF 37° C., 1 h) 14%; (FaSSIF 37° C., 2 h) 17%. Also, the “starting material (prodrug compound)” value is 73% (FaSSIF 37° C. 24 h); 81% (FaSSIF 37° C., 15 min); 82% (FaSSIF 37° C., 30 min); 80% (FaSSIF 37° C., 1 h); 79% (FaSSIF 37° C., 2 h). For the same compound, the Conversion to indirubin (FaSSIF 37° C.) is recorded as 20-40%.
As to `CC(=O)N1CCN(CN2C(=O)/C(=C3\Nc4ccccc4C3=O)c3ccccc32)CC1` [drawing 258], the indirubin runs as follows: (FaSSIF 37° C. 24 h) 37%; (FaSSIF 37° C., 15 min) 8%; (FaSSIF 37° C., 30 min) 12%; (FaSSIF 37° C., 1 h) 12%; (FaSSIF 37° C., 2 h) 21%. In addition, the indirubin methylene alcohol amounted to 14% (FaSSIF 37° C. 24 h); 12% (FaSSIF 37° C., 15 min); 14% (FaSSIF 37° C., 30 min); 12% (FaSSIF 37° C., 1 h); 10% (FaSSIF 37° C., 2 h). Moreover, the “starting material (prodrug compound)” value came out at 10% (FaSSIF 37° C. 24 h); 31% (FaSSIF 37° C., 15 min); 37% (FaSSIF 37° C., 30 min); 30% (FaSSIF 37° C., 1 h); 29% (FaSSIF 37° C., 2 h). Moreover, the Conversion to indirubin (FaSSIF 37° C.) is listed as 40-60%.
In turn, `O=C1/C(=C2/C(=O)N(CN3CCCC3)c3ccccc32)Nc2ccccc21` [drawing 255] returned an indirubin (FaSSIF 37° C. 24 h) of 100%; an indirubin (FaSSIF 37° C., 15 min) of 100%; an indirubin (FaSSIF 37° C., 30 min) of 100%; an indirubin (FaSSIF 37° C., 1 h) of 100%; an indirubin (FaSSIF 37° C., 2 h) of 100%. The indirubin methylene alcohol (FaSSIF 37° C. 24 h) was 0%; the indirubin methylene alcohol (FaSSIF 37° C., 15 min) is on record as 0%; the indirubin methylene alcohol (FaSSIF 37° C., 30 min) is 0%; the indirubin methylene alcohol (FaSSIF 37° C., 1 h) was found to be 0%; the indirubin methylene alcohol (FaSSIF 37° C., 2 h) came out at 0%. The “starting material (prodrug compound)” value by setting is: (FaSSIF 37° C. 24 h) 0%; (FaSSIF 37° C., 15 min) 0%; (FaSSIF 37° C., 30 min) 0%; (FaSSIF 37° C., 1 h) 0%; (FaSSIF 37° C., 2 h) 0%. Moreover, the Conversion to indirubin (FaSSIF 37° C.) was 80-100%.
Turning to `O=C1/C(=C2/C(=O)N(CN3CCCCC3)c3ccccc32)Nc2ccccc21` [drawing 254], the Conversion to indirubin (FaSSIF 37° C.) is 80-100%.

The values above are taken from patent publication US12516022B2, “Derivatives of aryl hydrocarbon receptor agonists” (AZORA THERAPEUTICS, INC., priority 2021, dated 2026).
